Assay [1] relates to voltage-gated Na+ channels. As to the kind of experiment: Sodium (Na+) channel analysis in rat DRG neurons using whole cell patch-clamp. It is filed as cell-based. The following applies: Na+ currents in isolated rat DRG neurons, 3 min in presence of drug, read-out: IC50 range. The procedure:
Isolated DRG neurons were suspended in primary neuron basal media and placed on glass coverslips for incubation in humidified atmosphere of 5% CO2 at 37° C. Coverslips carrying cells was transferred to the bath of an inverted microscope (Zeiss), continuously perfused with oxygenated artificial cerebro-spinal fluid (ACSF) containing (in mM) 124 NaCl, 2.5 KCl, 2 CaCl2, 1 MgSO4, 25 NaHCO3, 1 NaH2PO4, and 10 glucose, at a rate of 2-3 ml/min. Recording of whole-cell membrane currents were made at room temperature. Recording pipette (4-6 MS2) was filled with internal solution containing (in mM) 145 K-gluconate, 5 NaCl, 1 MgCl2, 0.2 EGTA, 10 HEPES, 2 Mg-ATP, 0.1 Na-GTP, and 10 phosphocreatine. To isolate Na^+ currents, DRG neurons were superfused with ACSF containing tetraethylammonium chloride (TEA) 5 mM, cesium chloride (CsCl) 100 μM and cadmium chloride (CdCl) 1 mM, to block potassium and calcium currents. NQ compounds were freshly dissolved in ASCF containing TEA, CsCl and CdCl, prior application via the bath.
For recording Na^+ currents, cells were held at −60 mV before applying a conditioning hyperpolarizing step (50 ms) to −90 mv to reactivate the voltage-gated Na^+ channels. The conditioning pulse was followed by depolarizing (150 ms) test pulses to 50 mV in 10 mV increments. Na^+ currents were recorded in absence, after 3 min in presence of the drugs and after a recovery time of 3 min.

Another assay concerns zebrafish embryos. Briefly: Zebrafish response (anaesthesia) assay, touch response/swim behaviour. It is filed as in vivo. The following applies: Danio rerio, 1.5 h; complete anaesthesia (scale 1) in 50% of AB wild type embryos (54 hpf), 90 min at 28° C. The text has this:
Briefly, the ZEA assay involves applying essential oils, fractions or individual compounds to developmentally staged zebrafish embryos followed by monitoring of embryonic touch response/swim behaviour and evaluation of the dose response relationship for each substance. Using a four point scale to describe the embryonic behaviours (Table 4), initial analysis focused on monitoring and recording these changes and evaluating the level of bioactivity. The effective concentration to generate complete anaesthesia in 50% of the embryos (EC50), were evaluated as follows:
Compounds are tested on developmentally staged AB “wild type” zebrafish embryos (54 hpf+/−2 hpf) at concentrations ranging between 10 and 400 μM.
Each compound is diluted in a 95% ethanol or DMSO carrier to create a working stock solution from which appropriate dilutions are made in standard embryo E3 media.
1000 μl of each concentration or appropriate carrier control are added to 10 wild type AB embryos in a single well of a 24 well plate, in duplicate.
The embryos are incubated for 90 min at 28° C. (optimal temperature for embryonic growth) in the diluted compound.
A four point scale (Table 4) is used to evaluate the touch response and swim behaviour for each embryo in all wells.
The effectiveness of the compound will be based on its ability to generate complete anaesthesia (scale: 1) in 50% of the embryos at a given concentration (EC50).
The EC50 values are calculated using GraphPad Prism® software to analyze the log (dose) response curves.

For `CC(C)=CCC/C(C)=C\[S+](C)[O-]` (stereo not shown) [NQ 3062, (Z)-2,6-dimethyl-1-(methylsulfinyl)hepta-1,5-diene], the IC50 in assay [1] was 1000 to 5000 µM. On the same count and under the same terms, then `CC(C)=CCC/C(C)=C/C(N)Cc1ccccc1` (stereo not shown) [NQ 3089, (E)-4,8-dimethyl-1-phenylnona-3,7-dien-2-amine], with less than 100 µM. Still for that read-out and setting: with `CC(C)=CCC/C(C)=C/C(O)(C(F)(F)F)C(F)(F)F` [NQ 3067, (E)-1,1,1-trifluoro-4,8-dimethyl-2-(trifluoromethyl)nona-3,7-dien-2-ol] the figure was 100 to 1000 µM; with `CC(C)=CCC/C(C)=C/C(N)CCCO` (stereo not shown) [NQ 3084, (E)-4-amino-6,10-dimethylundeca-5,9-dien-1-ol], 100 to 1000 µM; with `CC(C)=CCC/C(C)=C/S(N)(=O)=O` [NQ 3063, (E)-2,6-dimethylhepta-1,5-diene-1-sulfonamide], 1000 to 5000 µM.

For the compound `CC(C)=CCC/C(C)=C/CN` (single isomer, unassigned) [NQ 2981, (E)-3,7-dimethylocta-2,6-dien-1-amine], in assay [1], the IC50 was less than 100 µM. Moreover, the EC50 in the assay with zebrafish embryos is 217 µM. As for `CC(C)=CCC/C(C)=C\C=O` [NQ 3000, (Z)-3,7-dimethylocta-2,6-dienal], the half-inhibitory concentration (IC50) in assay [1] fell in the range of 5000 to 10000 µM.

As for `CC(C)=CCC/C(C)=C/S(=O)(=O)NCC(F)(F)F` [NQ 3064, (E)-2,6-dimethyl-N-(2,2,2-trifluoroethyl)hepta-1,5-diene-1-sulfonamide], the IC50 in assay [1] is 1000 to 5000 µM. In the case of `CC(C)=CCC/C(C)=C/C(=O)O` [NQ 2984, (E)-3,7-dimethylocta-2,6-dienoic acid], in assay [1], the IC50 lay within 1000 to 5000 µM. Also, the EC50 in the assay on zebrafish embryos was greater than 200 µM. As to `CC(C)=CCC/C(C)=C/[S+](C)[O-]` (stereo not shown) [NQ 3057, (E)-2,6-dimethyl-1-(methylsulfinyl)hepta-1,5-diene], the IC50 in assay [1] fell in the range of 1000 to 5000 µM. Still for that read-out and setting: with `CC(C)=CCCC(C)=Cc1nn[nH]n1` [NQ 3045, 5-(2,6-dimethylhepta-1,5-dien-1-yl)-2H-tetrazole] the figure was 1000 to 5000 µM. Still for that read-out and setting: then `CC(C)=CCC/C(C)=C/S(=O)(=O)NCc1ccccc1` [NQ 3071, (E)-N-benzyl-2,6-dimethylhepta-1,5-diene-1-sulfonamide], with 100 to 1000 µM.

Consider `COC/C=C(\C)CCC=C(C)C` [NQ 2976, (E)-1-methoxy-3,7-dimethylocta-2,6-diene], for which the IC50 in assay [1] was in the range of 1000 to 5000 µM. Besides, the EC50 in the assay on zebrafish embryos amounted to 874 µM. On to `CC(C)=CCC/C(C)=C\C(=O)O` [NQ 3001, (Z)-3,7-dimethylocta-2,6-dienoic acid], for which the IC50 in assay [1] is greater than 10000 µM. Same read-out and setting: then `CC(C)=CCC/C(C)=C/C(C)N` (stereo not shown) [NQ 3079, (E)-4,8-dimethylnona-3,7-dien-2-amine], with 100 to 1000 µM; and `CC(C)=CCC/C(C)=C/COCc1ccccc1` [NQ 2977, (E)-((3,7-dimethylocta-2,6-dienyloxy)methyl)benzene], with 1000 to 5000 µM.

In the case of `CC(C)=CCC/C(C)=C/C(N)C(C)C` (stereo not shown) [NQ 3082, (E)-2,5,9-trimethyldeca-4,8-dien-3-amine], the IC50 in assay [1] is less than 100 µM. The same measure, in the same setting: then `CC(C)=CCC/C(C)=C/CS(C)(=O)=O` [NQ 3053, (E)-3,7-dimethyl-1-(methylsulfonyl)octa-2,6-diene], with 1000 to 5000 µM.

Take `CC(C)=CCC/C(C)=C\S(=O)(=O)NCC(F)(F)F` [NQ 3069, (Z)-2,6-dimethyl-N-(2,2,2-trifluoroethyl)hepta-1,5-diene-1-sulfonamide]: the IC50 in assay [1] lay in the range of 100 to 1000 µM. On to `CC(C)=CCC/C(C)=C/C(O)C(F)(F)F` (stereo not shown) [NQ 3065, (E)-1,1,1-trifluoro-4,8-dimethylnona-3,7-dien-2-ol], for which the IC50 in assay [1] is 100 to 1000 µM.

On to `CC(C)=CCC/C(C)=C/CNC(=O)c1ccccc1O` [NQ 2987, (E)-N-(3,7-dimethylocta-2,6-dienyl)-2-hydroxybenzamide], for which the 50% inhibitory concentration (IC50) in assay [1] is 1000 to 5000 µM. Besides, in the assay on zebrafish embryos, the midpoint of the response, the EC50, lay at 134 µM. As to `CC(C)=CCC/C(C)=C/C(N)=O` [NQ 2992, (E)-3,7-dimethylocta-2,6-dienamide], the concentration for half-maximal inhibition (IC50) in assay [1] lay within 100 to 1000 µM.

Regarding `CC(C)=CCC/C(C)=C/CNC(=O)c1ccccc1` [NQ 2982, (E)-N-(3,7-dimethylocta-2,6-dienyl)benzamide], in assay [1], the IC50 lay in the range of 1000 to 5000 µM. This compound yielded a concentration giving a half-maximal response (EC50) in the assay with zebrafish embryos of 103 µM. For `CC(C)=CCC/C(C)=C\S(=O)(=O)N(C)C` [NQ 3050, (Z)-N,N,2,6-tetramethylhepta-1,5-diene-1-sulfonamide], the IC50 in assay [1] is 100 to 1000 µM. Same read-out and setting: then `CCCC(N)/C=C(\C)CCC=C(C)C` (stereo not shown) [NQ 3081, (E)-6,10-dimethylundeca-5,9-dien-4-amine], with less than 100 µM. Take `CC(C)=CCC/C(C)=C/C(=O)Nc1ccccc1` [NQ 2986, (E)-3,7-dimethyl-N-phenylocta-2,6-dienamide]: the IC50 in assay [1] was 5000 to 10000 µM. This compound gave an EC50 with zebrafish embryos of 449 µM. As to `CON(C)C(=O)/C=C(\C)CCC=C(C)C` [NQ 3052, (E)-N-methoxy-N,3,7-trimethylocta-2,6-dienamide], the IC50 in assay [1] is 100 to 1000 µM.

Take `CC(C)=CCC/C(C)=C/S(=O)(=O)N(C)C` [NQ 3051, (E)-N,N,2,6-tetramethylhepta-1,5-diene-1-sulfonamide]: the IC50 in assay [1] is 100 to 1000 µM. For `CC(C)=CCC/C(C)=C/CN(C)C` [NQ 2990, (E)-N,N,3,7-tetramethylocta-2,6-dien-1-amine], the IC50 in assay [1] is 1000 to 5000 µM. Take `CC(C)=CCC/C(C)=C/C(N)c1ccccc1` (stereo not shown) [NQ 3085, (E)-3,7-dimethyl-1-phenylocta-2,6-dien-1-amine]: the IC50 in assay [1] was less than 100 µM. Turning to `CC(C)=CCC/C(C)=C/C(=O)N(C)O` [NQ 3055, (E)-N-hydroxy-N,3,7-trimethylocta-2,6-dienamide], the IC50 in assay [1] lay within 100 to 1000 µM.

With `CC(C)=CCC/C(C)=C/C(=O)C(F)(F)F` [NQ 3066, (E)-1,1,1-trifluoro-4,8-dimethylnona-3,7-dien-2-one], in assay [1], the IC50 lay in the range of 1000 to 5000 µM.

Regarding `CC(C)=CCC/C(C)=C/C(O)C(C)C` (stereo not shown) [NQ 3083, (E)-2,5,9-trimethyldeca-4,8-dien-3-ol], the concentration for half-maximal inhibition (IC50) in assay [1] was 1000 to 5000 µM. Turning to `CC(=O)NC/C=C(\C)CCC=C(C)C` [NQ 2985, (E)-N-(3,7-dimethylocta-2,6-dienyl)acetamide], in assay [1], the IC50 lay within 1000 to 5000 µM. Further, the EC50 with zebrafish embryos was found to be 264 µM. The like results for `CC(C)=CCCC(C)=CC(=O)O` [NQ 2978, 3,7-dimethyloct-2,6-dienoic acid] were, in that order, greater than 10000 µM and 71.1 µM.

Turning to `CC(C)=CCC/C(C)=C/S(=O)(=O)Nc1ccccc1` [NQ 3070, (E)-2,6-dimethyl-N-phenylhepta-1,5-diene-1-sulfonamide], in assay [1], the IC50 was 100 to 1000 µM. Still for that read-out and setting: with `CNC/C=C(\C)CCC=C(C)C` [NQ 3007, (E)-N,3,7-trimethylocta-2,6-dien-1-amine] the figure was 1000 to 5000 µM; with `CNS(=O)(=O)/C=C(/C)CCC=C(C)C` [NQ 3061, (Z)-N,2,6-trimethylhepta-1,5-diene-1-sulfonamide], 100 to 1000 µM; with `CC(C)=CCC/C(C)=C/S(C)(=O)=O` [NQ 3047, (E)-2,6-dimethyl-1-(methylsulfonyl)hepta-1,5-diene], 1000 to 5000 µM. For the compound `CC(C)=CCC/C(C)=C/C(=O)N(C)C` [NQ 2988, (E)-N,N,3,7-tetramethylocta-2,6-dienamide], the IC50 in assay [1] is 1000 to 5000 µM. The same measure, in the same setting: with `CNC(=O)/C=C(\C)CCC=C(C)C` [NQ 2991, (E)-N,3,7-trimethylocta-2,6-dienamide] the figure was 1000 to 5000 µM. On the same count and under the same terms, then `CNS(=O)(=O)/C=C(\C)CCC=C(C)C` [NQ 3060, (E)-N,2,6-trimethylhepta-1,5-diene-1-sulfonamide], with 1000 to 5000 µM; and `CCC(N)/C=C(\C)CCC=C(C)C` (stereo not shown) [NQ 3078, (E)-5,9-dimethyldeca-4,8-dien-3-amine], with less than 100 µM; and `CC(C)=CCC/C(C)=C/C[S+](C)[O-]` (stereo not shown) [NQ 3054, (E)-3,7-dimethyl-1-(methylsulfinyl)octa-2,6-diene], with 1000 to 5000 µM.

The values are drawn from patent US20130267571A1, “TERPENOID ANALOGUES AND USES THEREOF FOR TREATING NEUROLOGICAL CONDITIONS” (NeuroQuest Inc., priority 2010, published 2013).
